Laboratory results published in PubChem BioAssay (NCI).
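Following 48 hours of exposure in 96-well plates, responses at five concentrations were used to interpolate endpoints linearly. Here, GI50 denotes the concentration required for 50% inhibition of growth. TGI marks complete inhibition of growth.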

Columns and labels:
Test in all cases: inhibition of tumour cell growth, NCI panel, 48 h
SF-295 CNS = tested on: SF-295 CNS
HOP-62 NSCLC = tested on: HOP-62 NSCLC
EKVX NSCLC = tested on: EKVX NSCLC
U251 CNS = tested on: U251 CNS
IGROV1 ovarian = tested on: IGROV1 ovarian
HCT-116 colon = tested on: HCT-116 colon
PC-3 prostate = tested on: PC-3 prostate
UO-31 renal = tested on: UO-31 renal
OVCAR-3 ovarian = tested on: OVCAR-3 ovarian
SNB-19 CNS = tested on: SNB-19 CNS

Row | Compound | GI50 (SF-295 CNS) [µM] | TGI (SF-295 CNS) [µM] | GI50 (HOP-62 NSCLC) [µM] | TGI (HOP-62 NSCLC) [µM] | GI50 (EKVX NSCLC) [µM] | TGI (EKVX NSCLC) [µM] | GI50 (U251 CNS) [µM] | TGI (U251 CNS) [µM] | GI50 (IGROV1 ovarian) [µM] | TGI (IGROV1 ovarian) [µM] | GI50 (HCT-116 colon) [µM] | TGI (HCT-116 colon) [µM] | GI50 (PC-3 prostate) [µM] | TGI (PC-3 prostate) [µM] | GI50 (UO-31 renal) [µM] | TGI (UO-31 renal) [µM] | GI50 (OVCAR-3 ovarian) [µM] | TGI (OVCAR-3 ovarian) [µM] | GI50 (SNB-19 CNS) [µM] | TGI (SNB-19 CNS) [µM]
1 | COc1ccc2c(Nc3ccc(NS(C)(=O)=O)cc3)c3ccccc3nc2c1 | 0.381 | 2.53 | 0.429 | 2.72 | 1.43 | 8.2 | 0.475 | 9.02 | 0.418 | 16.7 | 0.262 | 3.96 | 0.735 | 10.1 | 0.809 | 8.87 | 0.99 | 3.09 | 0.445 | 11.4
2 | COc1cc(/C=C2\CC3C4CC=C5C[C@@H](OC(C)=O)CC[C@]5(C)C4CC[C@]3(C)C2=O)ccc1OCCCn1ccnc1 (some centres not stated) | 9.22 | 22.3 | 8.83 | 16.4 | 0.0741 | 5.18 | 8.93 | 15.9 | 13.7 | 46.8 | 13.4 | 29.6 | 18 | 42.1 | 9.14 | 19.9 | 9.79 | 21.2 | 20.2 | > 50
3 | NC(=O)c1cc(Br)cc(C2CCCCC2)c1O | 11.3 | 24.5 | 14.1 | 28.4 | 15.1 | 30.5 | 10.8 | 23 | 12.4 | 25.9 | 12.5 | 25 | 12.8 | 26.4 | 2.51 | 18.3 | 13.2 | 25.9 | 13.8 | 27.9
4 | O=C1CSC(/C(=C\c2ccc(Cl)cc2)c2nc3ccccc3[nH]2)=N1 |  | 22.8 |  | 5.82 |  | 32.2 |  | 25.6 |  | 22.4 |  | 30.4 |  | 36.5 |  | 7.64 |  | 20.9 |  | 33.9
5 | COC(=O)c1c2c(c(C)[n+]([O-])c1C)C(=O)C=C(NCc1ccc(F)c(F)c1)C2=O | 0.437 | 1.59 | 0.86 | 2.5 | 0.685 | 2.26 | 0.458 | 1.72 | 0.36 | 1.68 | 0.256 | 0.902 | 0.279 | 2.42 | 1.11 | 2.35 | 0.256 | 0.766 | 1.08 | 2.29
6 | CCN1C(=S)N(CC)C2C1NC(=S)N2/N=C/C=C/c1ccccc1 (configuration not stated) | 1.04 | 11.8 | 2.26 | 15.7 | 4.19 | 34.7 | 2.31 | 13 | 2.15 | 16.3 | 1.3 | 12.4 | 1.52 | 16 | 3.55 | 18.3 | 0.52 | 4.97 | 2.8 | 20.2
7 | ClC(Cl)c1nc(-c2cccnc2)n2nc(-c3ccccc3)cc2n1 | 2.27 | 6.52 | 1.69 | 6.44 | 2.32 | 6.21 | 1.46 | 5.11 | 1.63 | 5.23 | 1.43 | 6.29 | 1.71 | 4.68 |  |  | 1.61 | 4.16 | 1.88 | 5.89
8 | O=c1nc(Nc2cccc(Cl)c2)oc2cc(Cl)oc(=O)c12 | 12.1 | 43 | 11 | 31.4 | 16.9 | 39.8 | 5.08 | 20.6 | 5.13 | 21.1 | 10.7 | 41.3 | 10.8 | 66.5 | 5.46 | 21.7 | 3.48 | 13.3 | 20 | > 100
9 | C=C1C(=O)OC2CC1C(O)C/C(C)=C/CC/C(C)=C/C(O)CC2C (configuration not stated) |  | 26.7 |  | 25.2 |  | 5.81 |  | 16.8 |  | 9.3 |  | 3.33 |  | 13.1 |  | 6.66 |  | 9.2 |  | 18.9
10 | OCC1OC(n2ccc3c(NO)ncnc32)C(O)C1O (configuration not stated) | 0.144 | 0.599 | 0.219 | 2.51 | 0.241 | 0.994 | 0.168 | > 20.2 | 0.088 | 1.17 | 0.0296 | 1.03 | 0.239 | 1.14 | 0.0536 | 0.502 | 0.249 | 0.884 | 0.263 | 
